In patent US20230391714A1, “INHIBITORS OF THE INTERACTION BETWEEN TRIP8B AND HCN CHANNELS AND USES THEREOF FOR TREATING NEUROLOGICAL DISEASES AND DISORDERS” (Northwestern University, priority 2022, published 2023) one finds IC50 data, which are given here for 22 compounds.

Read-outs that look alike come from different tables or passages of the source.

The assay deals with TRIP8b-HCN1c40 (Homo sapiens (Human), UniProt Q8IYB4). The experiment in a line: TRIP8b-HCN1c40 AlphaScreen assay. In kind it is binding. Here is the method:
AlphaScreen Assay. 20 nM ofGST-tagged HCNlc40 protein (corresponding to the C terminal 40 amino acids of HCN1) was incubated with 200 nM of His-tagged TRIP8b(241-602) and varying concentrations of the test compound as described in our prior report (Han et al., 2015). After a 3 h incubation, anti-GST AlphaScreen acceptor beads were added for 1.5 h followed by AlphaScreen nickel chelate donor beads for 1.5 h. AlphaScreen signal was quantified using a PerkinElmer (Waltham, MA) EnSpire multimode plate reader.
In general terms: Bead proximity is the source of the signal in Alpha formats.

[1] abbreviates: activity ranges, read-out: TRIP8b-HCN1c40 Alphascreen IC50 activity.
Setting [2] is: read-out: TRIP8b-HCN1c40 Alphascreen IC50.

Chain of TRIP8b-HCN1c40 (Q8IYB4 265-626): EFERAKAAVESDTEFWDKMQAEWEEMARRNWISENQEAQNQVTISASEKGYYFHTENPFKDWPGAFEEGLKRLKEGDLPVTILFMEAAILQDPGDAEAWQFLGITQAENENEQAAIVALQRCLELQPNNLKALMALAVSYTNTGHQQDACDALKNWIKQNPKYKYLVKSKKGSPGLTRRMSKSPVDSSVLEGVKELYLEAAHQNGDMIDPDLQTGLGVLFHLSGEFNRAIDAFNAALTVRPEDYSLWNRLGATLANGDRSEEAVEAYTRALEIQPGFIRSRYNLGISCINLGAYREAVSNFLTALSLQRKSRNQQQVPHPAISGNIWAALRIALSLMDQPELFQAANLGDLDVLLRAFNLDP

As a reminder, the IC50 is the concentration that gives 50% inhibition. On to `CN1CCN(Cc2cc(-c3ccc(Cl)c(Cl)c3)ccc2OCC(=O)NC2CCc3ccccc32)CC1` (stereo not drawn) [NUCC-0201988], for which the half-inhibitory concentration (IC50) runs as follows: under setting [1], 1 to 2 µM; under setting [2], 1.4 µM.
Take `CN1CCN(Cc2ccc(-c3ccc(F)cc3)cc2OCC(=O)NCc2ccc(Cl)cc2)CC1` [NUCC-0202010]: the IC50 was 5 to 10 µM under setting [1] and 5.7 µM under setting [2].
For `Cc1ccc(-c2ccc(OCC(=O)N[C@H](C)c3ccccc3)c(CN3CCOCC3)c2)cc1` [NUCC-0201606], the IC50 is 20 to 40 µM under setting [1] and 28 µM under setting [2].
In the same order, the values of `CN1CCN(Cc2cc(-c3cc(Cl)cc(Cl)c3)ccc2OCC(=O)Nc2ccc(Cl)c(Cl)c2)CC1` [NUCC-0202003] are less than 1 µM and less than 0.74 µM.
`CN1CCN(Cc2cc(-c3ccc(N)cc3)ccc2OCC(=O)NCc2ccc(Cl)cc2)CC1` [NUCC-0202053]: the IC50 reads like this: under setting [1], 10 to 20 µM; under setting [2], 18 µM.
As for `CN1CCN(Cc2cc(-c3ccc(CCl)cc3)ccc2OCC(=O)NCc2ccc(Cl)c(Cl)c2)CC1` [NUCC-0201971], the IC50 reads like this: under setting [1], 5 to 10 µM; under setting [2], 6.6 µM.
For the compound `CN1CCN(Cc2cc(-c3cccc(S(C)(=O)=O)c3)ccc2OCC(=O)Nc2ccc(Cl)c(Cl)c2)CC1` [NUCC-0202022], the concentration for half-maximal inhibition (IC50) reads like this: under setting [1], 2 to 5 µM; under setting [2], 2.7 µM.
Regarding `Cc1ccccc1-c1ccc(OCC(=O)NCc2ccc(Cl)cc2)c(CN2CCNCC2)c1` [NUCC-0201617], the half-maximal inhibitory concentration (IC50) by setting is: under setting [1], 5 to 10 µM; under setting [2], 7.8 µM.
On to `Cc1cccc(-c2ccc(OCC(=O)NCc3ccc(Cl)cc3)c(CN3CC[C@H](N)C3)c2)c1` [NUCC-0201625], for which the IC50 was 5 to 10 µM under setting [1] and 6.1 µM under setting [2].
Regarding `Cc1cccc(-c2ccc(OCC(=O)Nc3ccc(Cl)c(Cl)c3)c(CN3CCN(C)CC3)c2)c1` [NUCC-0202000], the half-maximal inhibitory concentration (IC50) under setting [1] is less than 1 µM and the IC50 under setting [2] stood at 0.76 µM.
As to `COc1ncc(-c2ccc(OCC(=O)NCc3ccc(Cl)cc3)c(CN3CCN(C)CC3)c2)c(OC)n1` [NUCC-0201189], the IC50 under setting [2] was 92 µM.
Take `CN1CCN(Cc2cc(-c3ccc(Cl)c(Cl)c3)ccc2OCC(=O)NC2Cc3ccccc3C2)CC1` [NUCC-0201989]: the half-inhibitory concentration (IC50) under setting [1] was 1 to 2 µM and the IC50 under setting [2] came to 1.3 µM.
Take `CN1CCN(Cc2cc(-c3ccc(Cl)c(Cl)c3)ccc2OCC(=O)N2CCc3cc(Cl)ccc32)CC1` [NUCC-0201981]: the 50% inhibitory concentration (IC50) under setting [1] is less than 1 µM and the IC50 under setting [2] was less than 0.74 µM.
For the compound `Cc1ccc(-c2ccc(OCC(=O)NCc3ccc(Cl)cc3)c(CN3CCC(N(C)C)CC3)c2)cc1` [NUCC-0201607], the concentration for half-maximal inhibition (IC50) is 5 to 10 µM under setting [1] and 5.5 µM under setting [2].
For the compound `CNC(=O)c1ccc(NC(=O)COc2ccc(-c3cccc(C)c3)cc2CN2CC[C@H](N)C2)cc1` [NUCC-0201623], the IC50 is 20 to 40 µM under setting [1] and 22 µM under setting [2].
Take `CN1CCN(Cc2cc(-c3cc(Cl)cc(Cl)c3)ccc2OCC(=O)NCc2ccc(Cl)c(Cl)c2)CC1` [NUCC-0201979]: the IC50 is, setting by setting: under setting [1], less than 1 µM; under setting [2], less than 0.74 µM.
On to `Cc1ccc(NC(=O)COc2ccc(-c3cccc(C)c3)cc2CN2CC[C@H](N)C2)cc1` [NUCC-0201618], for which the concentration for half-maximal inhibition (IC50) reads like this: under setting [1], 5 to 10 µM; under setting [2], 8.8 µM.
In the case of `Cc1ccc(-c2ccc(OCC(=O)NCc3cnc[nH]3)c(CN3CCC(N(C)C)CC3)c2)cc1` [NUCC-0201612], under setting [2], the IC50 was more than 40 µM.
With `Cc1ccc([C@@H](C)NC(=O)C(C)Oc2ccc(-c3ccc(Cl)cc3)cc2CN2CCN(C)CC2)cc1` (stereo partly drawn) [NUCC-0202046], the half-inhibitory concentration (IC50) runs as follows: under setting [1], less than 1 µM; under setting [2], 0.84 µM.
In the case of `CN1CCN(Cc2cc(-c3ccc(Cl)c(Cl)c3)ccc2OCC(=O)Nc2ccc(Cl)c(Cl)c2)CC1` [NUCC-0202002], the IC50 was less than 1 µM under setting [1] and less than 0.74 µM under setting [2].
`CN1CCN(Cc2cc(-c3ccc(Cl)c(Cl)c3)ccc2COC(=O)Nc2ccc3c(c2)OCO3)CC1` [NUCC-0202017]: the IC50 by setting is: under setting [1], less than 1 µM; under setting [2], less than 0.74 µM.
With `CN1CCN(Cc2cc(-c3ccccc3Cl)ccc2OCC(=O)Nc2ccc(Cl)c(Cl)c2)CC1` [NUCC-0201997], the IC50 by setting is: under setting [1], less than 1 µM; under setting [2], less than 0.74 µM.
